Source: ChEMBL document CHEMBL1201862, “PubChem BioAssay data set” (2004)
The source made the active and inactive calls.

What was measured:
[1] = target: T1, Rac GTPase-activating protein 1 (Homo sapiens, UniProt Q9H0H5); assay: MgcRacGAP GTPase-activating activity inhibitors, confirmation, biochemical, ADP Hunter fluorescence, primary and confirmatory (AID 624330); assay type: functional
T1 sequence (Q9H0H5 whole entry): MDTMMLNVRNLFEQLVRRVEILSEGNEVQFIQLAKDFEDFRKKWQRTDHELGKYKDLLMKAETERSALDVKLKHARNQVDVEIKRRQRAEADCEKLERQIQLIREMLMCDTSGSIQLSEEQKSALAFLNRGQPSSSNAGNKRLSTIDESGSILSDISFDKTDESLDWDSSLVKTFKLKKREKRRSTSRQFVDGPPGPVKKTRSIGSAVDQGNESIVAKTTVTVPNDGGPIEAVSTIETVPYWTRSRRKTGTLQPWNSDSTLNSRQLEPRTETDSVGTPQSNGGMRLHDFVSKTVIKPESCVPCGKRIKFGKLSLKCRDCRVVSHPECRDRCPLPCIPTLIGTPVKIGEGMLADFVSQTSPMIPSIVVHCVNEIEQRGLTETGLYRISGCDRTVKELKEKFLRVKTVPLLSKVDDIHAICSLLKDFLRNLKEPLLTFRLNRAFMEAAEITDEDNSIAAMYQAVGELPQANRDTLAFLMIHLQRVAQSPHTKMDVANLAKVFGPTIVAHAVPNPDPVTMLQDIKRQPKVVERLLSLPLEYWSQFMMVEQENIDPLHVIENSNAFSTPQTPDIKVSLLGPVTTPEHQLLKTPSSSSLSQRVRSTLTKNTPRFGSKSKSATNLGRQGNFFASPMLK

[2] = target: Genome polyprotein (dengue virus type 2, UniProt P29990); assay: Dengue-2 NS5 methyltransferase inhibitors, primary screen, biochemical, confirmation dose response (AID 588689); assay type: functional
[3] = target: T2, Calpain-2 catalytic subunit (Sus scrofa, UniProt P43367); assay: pig calpain II inhibitor potency, dose response, biochemical, fluorogenic peptide substrate (AID 1420); assay type: functional
T2 sequence (P43367 whole entry): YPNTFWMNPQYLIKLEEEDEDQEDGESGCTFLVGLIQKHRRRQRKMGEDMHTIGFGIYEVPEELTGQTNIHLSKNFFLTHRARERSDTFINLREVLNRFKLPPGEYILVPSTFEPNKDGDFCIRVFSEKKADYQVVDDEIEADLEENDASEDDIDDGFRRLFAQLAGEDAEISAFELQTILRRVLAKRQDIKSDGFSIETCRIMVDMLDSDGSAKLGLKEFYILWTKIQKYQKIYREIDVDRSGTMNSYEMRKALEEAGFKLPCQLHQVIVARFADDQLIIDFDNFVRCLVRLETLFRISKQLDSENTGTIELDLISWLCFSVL

[4] = test system: H4; assay: Luminescence Cell-Based Dose Response HTS to Identify Activators of 5'UTR Stem-Loop Driven Prion Protein mRNA Translation in H4 Neuroglioblastoma Cells. [Related pubchem assays: 1829 (Project Summary), 1814 (Primary HTS)]; assay type: functional; settings: Homo sapiens
[5] = Luminescence Cell-Based Dose Response HTS to Identify Activators of Luciferase Translation or Activity in H4 […] Cells. [Related pubchem assays: 1829 (Project Summary), 1814 (Primary HTS)]; assay type: functional
[6] = target: FAD-linked sulfhydryl oxidase ALR (Homo sapiens, UniProt P55789); assay: inhibitors of human ALR sulfhydryl oxidase, dose response, biochemical, H2O2 detection, luminescence, cherry-pick (AID 493248)
[7] = test system: HEK293; assay: inhibitors of LMP1-driven NF-kB reporter, dose response, cell-based, HEK293, luciferase, cherry-pick (AID 588343); assay type: functional; settings: Homo sapiens
[8] = target: Luciferin 4-monooxygenase (Photinus pyralis, UniProt P08659); assay: firefly luciferase enzyme inhibitors, dose response, biochemical, luminescence (AID 1891)
[9] = Luminescence Cell-Based Dose Response HTS to Identify Inhibitors of 5'UTR Stem-Loop Driven Prion Protein mRNA Translation in H4 Neuroglioblastoma Cells. [Related pubchem assays: 1827 (Project Summary), 1813 (Primary HTS)]; assay type: functional
[10] = Luminescence Cell-Based Dose Confirmation HTS to Identify Inhibitors of Platelet Dense Granule Release. [Related pubchem assays: 1663 (Primary HTS), 1678 (Summary of Project)]; assay type: functional
[11] = inhibitors of SNCA 5'UTR-driven reporter translation, confirmation, H4 neuroglioma cells, luminescence (AID 1988); assay type: functional, cell-based
[12] = target: T3, Protein skinhead-1 (Caenorhabditis elegans, UniProt P34707); assay type: functional
T3 sequence (P34707 whole entry): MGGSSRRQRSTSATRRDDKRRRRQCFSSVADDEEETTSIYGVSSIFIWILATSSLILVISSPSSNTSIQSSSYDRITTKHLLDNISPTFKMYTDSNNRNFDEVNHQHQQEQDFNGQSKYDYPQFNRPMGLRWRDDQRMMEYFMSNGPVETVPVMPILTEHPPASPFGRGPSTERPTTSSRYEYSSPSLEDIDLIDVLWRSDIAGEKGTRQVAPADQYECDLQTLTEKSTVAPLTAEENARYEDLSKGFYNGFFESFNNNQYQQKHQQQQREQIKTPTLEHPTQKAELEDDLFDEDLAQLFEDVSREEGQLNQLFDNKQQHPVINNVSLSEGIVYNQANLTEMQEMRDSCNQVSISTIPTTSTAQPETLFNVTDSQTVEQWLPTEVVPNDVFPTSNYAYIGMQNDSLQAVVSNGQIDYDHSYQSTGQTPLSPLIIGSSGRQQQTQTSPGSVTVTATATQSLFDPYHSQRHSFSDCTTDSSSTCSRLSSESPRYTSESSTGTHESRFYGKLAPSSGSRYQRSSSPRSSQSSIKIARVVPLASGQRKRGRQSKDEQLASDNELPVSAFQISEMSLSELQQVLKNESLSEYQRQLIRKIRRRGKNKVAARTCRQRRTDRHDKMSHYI

[13] = target: T4, Heat shock factor protein 1 (Mus musculus, UniProt P38532); assay: inhibition of MG132-induced HSE-luciferase signal, confirmation, cell-based, NIH3T3, luminescence, dose retest (AID 2382); assay type: functional;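 further: NIH3T3 fibroblasts with HSF1-driven luciferase reporter stressed by proteasome inhibitor MG132; luminescence from HSF1-driven luciferase expression after 8 hours of MG132 stress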
T4 sequence (P38532 whole entry): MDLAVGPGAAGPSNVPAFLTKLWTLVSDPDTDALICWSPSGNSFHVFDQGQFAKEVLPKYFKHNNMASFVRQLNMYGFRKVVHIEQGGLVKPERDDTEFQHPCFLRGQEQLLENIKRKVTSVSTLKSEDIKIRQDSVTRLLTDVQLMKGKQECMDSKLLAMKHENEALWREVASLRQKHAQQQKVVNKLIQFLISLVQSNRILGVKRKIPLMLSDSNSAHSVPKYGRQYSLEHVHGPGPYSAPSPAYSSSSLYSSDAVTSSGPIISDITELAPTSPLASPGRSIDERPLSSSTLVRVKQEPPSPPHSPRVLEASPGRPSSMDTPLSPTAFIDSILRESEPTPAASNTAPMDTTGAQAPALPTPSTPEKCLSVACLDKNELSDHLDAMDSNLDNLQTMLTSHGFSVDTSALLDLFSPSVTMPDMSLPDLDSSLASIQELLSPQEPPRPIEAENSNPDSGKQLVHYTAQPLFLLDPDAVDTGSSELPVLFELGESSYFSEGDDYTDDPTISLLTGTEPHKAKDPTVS

[14] = HepG2 cell cytotoxicity, dose response, cytotoxicity control for Shn3 inhibitor project, CellTiter-Glo, cherry-picked (AID 624134); assay type: functional, cell-based
[15] = control 3'UTR Renilla luciferase suppression, dose response, counter-screen for Shn3 inhibitor project, cell-based, Clone20-Shn3RL, cherry-picked (AID 624133); assay type: functional
[16] = Shn3 3'UTR reporter inhibitors, dose response, cell-based, Clone20 osteoblasts, firefly luciferase, cherry-picked (AID 624132); assay type: functional;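 further: firefly luciferase luminescence from reporter carrying the Shn3 3'UTR in osteoblasts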
[17] = microbe, parasite or virus in culture; assay type: functional; settings: Mycobacterium tuberculosis
[18] = cytotoxicity toward DRD oncogenic fibroblasts, dose response, cell-based, non-viral oncogenic, luminescence (AID 1934); assay type: functional; settings: Homo sapiens
[19] = test system: BJ; assay: cells; assay type: functional, cell-based; settings: Homo sapiens
[20] = test system: BJ; assay: cytotoxicity toward BJ-TERT-LT-ST fibroblasts, dose response, cell-based, RAS-independent, luminescence (AID 1935); assay type: functional; settings: Homo sapiens;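 further: BJ fibroblasts immortalized with TERT plus LT and ST oncogenes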
[21] = test system: BJ; assay: cytotoxicity toward BJ-TERT fibroblasts, dose response, cell-based, RAS-independent, luminescence (AID 1933); assay type: functional; settings: Homo sapiens

Genome polyprotein, sequence (P29990 2492-3391 limits assumed): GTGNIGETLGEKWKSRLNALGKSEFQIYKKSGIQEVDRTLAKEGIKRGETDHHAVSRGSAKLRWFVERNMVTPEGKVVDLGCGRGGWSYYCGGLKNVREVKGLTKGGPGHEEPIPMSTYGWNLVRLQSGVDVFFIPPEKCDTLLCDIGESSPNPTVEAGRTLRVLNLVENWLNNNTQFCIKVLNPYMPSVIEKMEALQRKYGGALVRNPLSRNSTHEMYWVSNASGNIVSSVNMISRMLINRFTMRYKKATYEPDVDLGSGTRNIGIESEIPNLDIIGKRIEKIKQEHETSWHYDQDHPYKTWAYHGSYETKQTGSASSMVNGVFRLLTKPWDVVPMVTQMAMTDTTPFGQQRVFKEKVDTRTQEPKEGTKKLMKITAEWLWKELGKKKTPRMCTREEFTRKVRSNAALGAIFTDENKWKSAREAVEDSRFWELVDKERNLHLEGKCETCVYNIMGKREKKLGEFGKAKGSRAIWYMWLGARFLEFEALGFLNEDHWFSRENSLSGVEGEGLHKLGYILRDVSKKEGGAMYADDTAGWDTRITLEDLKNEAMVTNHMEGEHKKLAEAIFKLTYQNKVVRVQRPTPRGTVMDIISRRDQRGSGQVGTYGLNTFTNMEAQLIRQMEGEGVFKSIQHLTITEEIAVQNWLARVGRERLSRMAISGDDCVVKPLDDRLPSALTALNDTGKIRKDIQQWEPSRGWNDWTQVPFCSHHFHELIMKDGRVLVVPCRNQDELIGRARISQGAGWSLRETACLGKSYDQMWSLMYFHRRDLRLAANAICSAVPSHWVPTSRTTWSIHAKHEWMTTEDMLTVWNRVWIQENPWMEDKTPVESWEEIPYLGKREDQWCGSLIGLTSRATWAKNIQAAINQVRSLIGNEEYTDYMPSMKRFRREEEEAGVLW
FAD-linked sulfhydryl oxidase ALR, sequence (P55789 whole entry): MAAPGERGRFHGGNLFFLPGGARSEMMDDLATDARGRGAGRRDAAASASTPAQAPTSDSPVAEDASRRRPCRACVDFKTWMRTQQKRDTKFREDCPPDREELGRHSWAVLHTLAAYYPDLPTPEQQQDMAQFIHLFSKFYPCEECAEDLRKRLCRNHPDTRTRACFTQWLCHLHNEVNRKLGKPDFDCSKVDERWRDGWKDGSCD
Luciferin 4-monooxygenase, sequence (P08659 whole entry): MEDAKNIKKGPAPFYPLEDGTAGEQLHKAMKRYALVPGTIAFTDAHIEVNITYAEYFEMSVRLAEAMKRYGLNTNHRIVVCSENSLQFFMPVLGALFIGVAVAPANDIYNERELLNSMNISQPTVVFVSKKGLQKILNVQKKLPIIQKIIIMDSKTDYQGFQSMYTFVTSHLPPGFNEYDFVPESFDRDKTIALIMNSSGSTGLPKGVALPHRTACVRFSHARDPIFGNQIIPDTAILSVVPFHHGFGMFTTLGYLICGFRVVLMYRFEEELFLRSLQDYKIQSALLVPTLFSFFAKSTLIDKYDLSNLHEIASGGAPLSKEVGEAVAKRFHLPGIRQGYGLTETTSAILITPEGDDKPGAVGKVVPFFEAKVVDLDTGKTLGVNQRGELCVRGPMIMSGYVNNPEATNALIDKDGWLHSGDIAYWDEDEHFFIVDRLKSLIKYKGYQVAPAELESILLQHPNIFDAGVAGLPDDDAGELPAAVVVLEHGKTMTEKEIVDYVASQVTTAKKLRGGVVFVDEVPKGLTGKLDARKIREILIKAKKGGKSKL

Cc1ccc(C(C2=C(O)CC(C)(C)CC2=O)C2C(=O)CC(C)(C)CC2=O)s1 (stereo not drawn)
IC50 [1]: 62.9 µM (active)
IC50 [2]: 29.4 µM (active)

CCOC(=O)c1cnc2c(Cl)ccc(Cl)c2c1O
IC50 [3]: 17.3 µM (not active)

CC1(C)CC(=O)C(C(C2=C(O)CC(C)(C)CC2=O)c2ccc(O)c([N+](=O)[O-])c2)=C(O)C1
IC50 [2]: 9.49 µM (active)

O=C(Cc1cccs1)Nc1ccc(-c2nc3ccccc3[nH]2)cc1
EC50 [4]: 0.236 µM (active)
EC50 [5]: 1.51 µM (active)

CC(C)(C)c1cc(-c2nnc(S)n2-c2ccccc2F)[nH]n1
AC50 [6]: 2.1 µM (active)

CC(=O)c1ccc(NC(=O)N2CCN(c3ccc(C)cc3)C(C)C2)cc1 (stereo not drawn)
AC50 [6]: 3.56 µM (active)

O=C(/C=C/Nc1ccc(Br)cc1F)c1ccccc1
AC50 [7]: 1.65 µM (active)
EC50 [8]: 0.542 µM (active)
EC50 [9]: 9.38 µM (active)
EC50 [10]: 4.16 µM (active)
EC50 [11]: 4.27 µM (active)
IC50 [12]: > 100 µM (inactive)

CCN(CCCNC(=O)CCn1c(=O)[nH]c2ccsc2c1=O)c1ccccc1
EC50 [13]: > 195 µM (not active)
IC50 [3]: < 0.4 µM (not active)

Cc1cc(NC(=O)c2ccc3c(c2)C(=O)N(CCC(C)C)C3=O)no1
IC50 [3]: 17.2 µM (not active)

CC(C)CCNc1nc2c(c(=O)n(Cc3cccc(F)c3)c(=O)n2C)n1C
IC50 [3]: 44.7 µM (not active)

COc1ccc(-n2nc3c(N4CCC(C(=O)NCC(C)c5ccccc5)CC4)nnc(C)c3c2C)cc1 (stereo not drawn)
AC50 [14]: 30.2 µM (active)
AC50 [15]: 36.7 µM (active)
AC50 [16]: 3.25 µM (active)

COc1ccc(-c2csc3ncnc(N4CCN(c5ccccc5OC)CC4)c23)cc1
CC50 [17]: > 40 µM (active)

CC(O)CNc1nc2ccccc2n1-c1ncnc2sc3c(c12)CCC3 (stereo not drawn)
CC50 [17]: 29.6 µM (active)

COc1ccc(Nc2nc(N)c(C(=O)c3ccc(F)cc3)s2)cc1
EC50 [18]: 2.8 µM (inconclusive)
EC50 [19]: 54.4 µM (inconclusive)
EC50 [20]: 37.5 µM (active)
EC50 [21]: 2.89 µM (inconclusive)

Cc1ccc(N/N=C2\CCS(=O)(=O)c3sccc32)cc1
AC50 [6]: 0.311 µM (active)
IC50 [3]: > 50 µM (not active)

COc1ccc2c(c1OC)C(=O)OC2c1c(O)n(Cc2ccc(F)cc2)c(=O)[nH]c1=O (stereo not drawn)
IC50 [2]: 69.7 µM (active)

Cc1cc(N)n2ncc(-c3ccccc3)c2n1
AC50 [6]: 18.9 µM (active)
EC50 [5]: 0.137 µM (active)

CN(C)c1ccc(/C=N/NS(=O)(=O)c2ccc(Br)cc2)cc1
AC50 [6]: 33.5 µM (active)
